Read-outs that look alike come from different tables or passages of the source. Where a SMILES comes first, the peptide text is derived from it. Bridges are numbered along the chain shown (N, C = ends). The star is where a group is joined. X2 = CCCCCCCCCCCC(O)CC(=O)*
Tests used:
[1] = tested on: T. gondii RH strain (RH-Tub-eYFP) tachyzoites; assay: microbe, parasite or virus in culture; format: cell-based, Toxoplasma gondii; conditions: 72 h; for percent parasite growth at 2 µg/mL: Toxoplasma gondii
[2] = tested on: P. falciparum 3D7 parasites; assay: P. falciparum growth inhibition assay, 2-cycle (120 h treatment), delayed-death screen and dose-response; format: cell-based, Plasmodium falciparum; conditions: for activity at 2 µg/mL: Plasmodium falciparum
[3] = tested on: P. falciparum 3D7 parasites; assay: P. falciparum growth inhibition assay, 1-cycle (72 h treatment), SYBR DNA staining (library screen at 2 μg/mL and dose-response); format: cell-based, Plasmodium falciparum; conditions: for activity at 2 µg/mL: Plasmodium falciparum
[4] = T. gondii, screen at 2 μg/mL, replicate 1
[5] = T. gondii, screen at 2 μg/mL, replicate 2
[6] = P. falciparum, 120 h, screen at 2 μg/mL, replicate 1
[7] = P. falciparum, 120 h, screen at 2 μg/mL, replicate 2
[8] = P. falciparum, 72 h, screen at 2 μg/mL, replicate 1
[9] = P. falciparum, 72 h, screen at 2 μg/mL, replicate 2
[10] = T. gondii, screen at 2 μg/mL, replicate 1, read-out: Tg_72h_%Growth_Rep1
[11] = T. gondii, screen at 2 μg/mL, replicate 2, read-out: Tg_72h_%Growth_Rep2
[12] = 3D7, P. falciparum, 120 h, screen at 2 μg/mL, replicate 1, read-out: Pf_120h_%Growth_Rep1
[13] = 3D7, P. falciparum, 120 h, screen at 2 μg/mL, replicate 2, read-out: Pf_120h_%Growth_Rep2
[14] = 3D7, P. falciparum, 72 h, screen at 2 μg/mL, replicate 1, read-out: Pf_72h_%Growth_Rep1
[15] = 3D7, P. falciparum, 72 h, screen at 2 μg/mL, replicate 2, read-out: Pf_72h_%Growth_Rep2
[16] = library screen at 2 μg/mL, % growth, replicate 1
[17] = library screen at 2 μg/mL, % growth, replicate 2
[18] = library screen at 2 μg/mL, 120 h, % growth, replicate 1
[19] = library screen at 2 μg/mL, 120 h, % growth, replicate 2
[20] = library screen at 2 μg/mL, 72 h, % growth, replicate 1
[21] = library screen at 2 μg/mL, 72 h, % growth, replicate 2

N[C@H](CO)[C@H](O)c1ccc([N+](=O)[O-])cc1 [Chloramphenicol base]
Tg_72h_%Growth_Rep1 [1, 4]: 134.60% | Tg_72h_%Growth_Rep2 [1, 5]: 99.67% | Pf_120h_%Growth_Rep1 [2, 6]: 102.72% | Pf_120h_%Growth_Rep2 [2, 7]: 92.34% | Pf_72h_%Growth_Rep1 [3, 8]: 86.96% | Pf_72h_%Growth_Rep2 [3, 9]: 86.58%

O=C(O)/C=C/c1ccccc1 [Cinnamic acid]
percent parasite growth at 2 µg/mL [1, 10]: 86.5% | percent parasite growth at 2 µg/mL [1, 11]: 96.7% | activity at 2 µg/mL [2, 12]: 147% | activity at 2 µg/mL [2, 13]: 102% | activity at 2 µg/mL [3, 14]: 90.3% | activity at 2 µg/mL [3, 15]: 87.8%

COc1oc([C@H]2C/C(=C/C(C)=C/c3ccc([N+](=O)[O-])cc3)CO2)c(C)c(=O)c1C [Aureothin]
Tg_72h_%Growth_Rep1 [1, 16]: 66.52% | Tg_72h_%Growth_Rep2 [1, 17]: 65.05% | Pf_120h_%Growth_Rep1 [2, 18]: 128.40% | Pf_120h_%Growth_Rep2 [2, 19]: 61.20% | Pf_72h_%Growth_Rep1 [3, 20]: 103.52% | Pf_72h_%Growth_Rep2 [3, 21]: 87.70%

COc1c(CC(C)O)c2c3c(CC(C)O)c(OC)c(=O)c4c(O)cc5c(c6c(cc(O)c(c1=O)c62)OCO5)c43 (stereo not drawn) [Cercosporin]
percent parasite growth at 2 µg/mL [1, 10]: 4.15% | percent parasite growth at 2 µg/mL [1, 11]: 11.5% | activity at 2 µg/mL [2, 12]: 7.99% | activity at 2 µg/mL [2, 13]: 4.28% | activity at 2 µg/mL [3, 14]: 9.71% | activity at 2 µg/mL [3, 15]: 9.49%

OCC1=C[C@@H](N[C@H]2C[C@H](CO)[C@@H](O[C@H]3O[C@@H](CO)[C@H](O)[C@@H](O)[C@@H]3O)[C@H](O)[C@H]2O)[C@H](O)[C@@H](O)[C@@H]1O [Validamycin A]
Tg_72h_%Growth_Rep1 [1, 4]: 87.00% | Tg_72h_%Growth_Rep2 [1, 5]: 98.14% | Pf_120h_%Growth_Rep1 [2, 6]: 167.49% | Pf_120h_%Growth_Rep2 [2, 7]: 74.14% | Pf_72h_%Growth_Rep1 [3, 8]: 75.67% | Pf_72h_%Growth_Rep2 [3, 9]: 70.52%

COc1cc([C@H]2[C@@]3(O)[C@H](O)[C@H]4C[C@]2(O)[C@](O)(C(=O)O4)[C@H]3C(=O)c2ccccc2)oc(=O)c1 [Enterocin]
Tg_72h_%Growth_Rep1 [1, 16]: 101.62% | Tg_72h_%Growth_Rep2 [1, 17]: 91.26% | Pf_120h_%Growth_Rep1 [2, 18]: 80.40% | Pf_120h_%Growth_Rep2 [2, 19]: 114.14% | Pf_72h_%Growth_Rep1 [3, 20]: 81.25% | Pf_72h_%Growth_Rep2 [3, 21]: 72.68%

CCCCCCCCCCCC(O)CC(=O)NC(CC(C)C)C(=O)NC(CCC(=O)O)C(=O)NC1C(=O)NC(C(C)C)C(=O)NC(CC(C)C)C(=O)NC(CO)C(=O)NC(CC(C)C)C(=O)NC(CC(C)C)C(=O)NC(CO)C(=O)NC(C(C)C)C(=O)OC1C (stereo not drawn) [BIA-O1431] (X2-LETVLSLLSV; ester 3-C; configuration not given here)
Tg_72h_%Growth_Rep1 ([1]; T. gondii, parasite screen at 2 μg/mL, % growth, replicate 1): 138.54% | Tg_72h_%Growth_Rep2 ([1]; T. gondii, parasite screen at 2 μg/mL, % growth, replicate 2): 91.95% | Pf_120h_%Growth_Rep1 ([2]; P. falciparum 3D7, 120 h, parasite screen at 2 μg/mL, % growth, replicate 1): 94.38% | Pf_120h_%Growth_Rep2 ([2]; P. falciparum 3D7, 120 h, parasite screen at 2 μg/mL, % growth, replicate 2): 109.58% | Pf_72h_%Growth_Rep1 ([3]; P. falciparum 3D7, 72 h, parasite screen at 2 μg/mL, % growth, replicate 1): 80.05% | Pf_72h_%Growth_Rep2 ([3]; P. falciparum 3D7, 72 h, parasite screen at 2 μg/mL, % growth, replicate 2): 103.50%

COc1cc(-c2cc3c(c(=O)o2)C[C@]2(O)[C@@]4(C)C(=O)C=CC(C)(C)[C@]4(O)CC[C@@]2(C)O3)cc(OC)c1OC [Territrem B]
percent parasite growth at 2 µg/mL [1, 10]: 89.7% | percent parasite growth at 2 µg/mL [1, 11]: 98.2% | activity at 2 µg/mL ([2]; 3D7, 120 h, P. falciparum, 120 h, screen at 2 μg/mL, replicate 1, read-out: Pf_120h_%Growth_Rep1): 148% | activity at 2 µg/mL ([2]; 3D7, 120 h, P. falciparum, 120 h, screen at 2 μg/mL, replicate 2, read-out: Pf_120h_%Growth_Rep2): 68.3% | activity at 2 µg/mL ([3]; 3D7, 72 h, P. falciparum, 72 h, screen at 2 μg/mL, replicate 1, read-out: Pf_72h_%Growth_Rep1): 63.6% | activity at 2 µg/mL ([3]; 3D7, 72 h, P. falciparum, 72 h, screen at 2 μg/mL, replicate 2, read-out: Pf_72h_%Growth_Rep2): 64.7%

CC1OC(=O)C2CC3CCCCC3C(C=CC3CCCC(C)N3C)C12 (stereo not drawn) [BIA-H1744]
Tg_72h_%Growth_Rep1 ([1]; T. gondii RH, library screen at 2 μg/mL, % growth, replicate 1): 122.85% | Tg_72h_%Growth_Rep2 ([1]; T. gondii RH, library screen at 2 μg/mL, % growth, replicate 2): 95.17% | Pf_120h_%Growth_Rep1 ([2]; P. falciparum 3D7, 120 h, library screen at 2 μg/mL, % growth, replicate 1): 64.50% | Pf_120h_%Growth_Rep2 ([2]; P. falciparum 3D7, 120 h, library screen at 2 μg/mL, % growth, replicate 2): 86.77% | Pf_72h_%Growth_Rep1 ([3]; P. falciparum 3D7, 72 h, library screen at 2 μg/mL, % growth, replicate 1): 66.16% | Pf_72h_%Growth_Rep2 ([3]; P. falciparum 3D7, 72 h, library screen at 2 μg/mL, % growth, replicate 2): 101.99%

Reference: publication PMC12396409, “Screening and hit evaluation of a microbial metabolite library against the pathogenic Plasmodium falciparum and Toxoplasma gondii parasites” (International Journal for Parasitology: Drugs and Drug …, 2025)
